Assays:
Human Calpain 1/NS1 = biological target: T1, Human Calpain 1/NS1 (Homo sapiens, UniProt P07384); test: Calpain inhibition, continuous fluorescence (FRET substrate) assay, calpain 1; type: biochemical; settings: SensoLyte 520 FRET substrate, 25C
T1 sequence (P07384 1-714): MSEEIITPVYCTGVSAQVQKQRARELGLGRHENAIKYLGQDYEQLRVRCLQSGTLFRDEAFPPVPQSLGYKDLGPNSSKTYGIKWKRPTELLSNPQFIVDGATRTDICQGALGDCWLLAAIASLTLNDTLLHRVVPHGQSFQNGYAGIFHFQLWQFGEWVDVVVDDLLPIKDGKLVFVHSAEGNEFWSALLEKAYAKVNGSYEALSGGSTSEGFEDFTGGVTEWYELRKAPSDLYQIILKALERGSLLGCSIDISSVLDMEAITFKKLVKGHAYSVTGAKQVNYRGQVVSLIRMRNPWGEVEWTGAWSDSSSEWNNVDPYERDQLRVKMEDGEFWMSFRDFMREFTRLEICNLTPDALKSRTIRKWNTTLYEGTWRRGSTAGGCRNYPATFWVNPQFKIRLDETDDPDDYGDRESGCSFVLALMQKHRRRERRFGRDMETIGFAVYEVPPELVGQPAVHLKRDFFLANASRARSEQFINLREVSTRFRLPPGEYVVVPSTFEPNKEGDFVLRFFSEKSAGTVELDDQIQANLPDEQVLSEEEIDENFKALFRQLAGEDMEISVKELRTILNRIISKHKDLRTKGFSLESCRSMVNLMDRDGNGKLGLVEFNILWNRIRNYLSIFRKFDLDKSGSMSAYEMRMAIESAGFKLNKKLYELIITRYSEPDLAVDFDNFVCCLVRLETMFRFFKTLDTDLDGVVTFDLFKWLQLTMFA
T1 sequence (P04632 1-268 partner): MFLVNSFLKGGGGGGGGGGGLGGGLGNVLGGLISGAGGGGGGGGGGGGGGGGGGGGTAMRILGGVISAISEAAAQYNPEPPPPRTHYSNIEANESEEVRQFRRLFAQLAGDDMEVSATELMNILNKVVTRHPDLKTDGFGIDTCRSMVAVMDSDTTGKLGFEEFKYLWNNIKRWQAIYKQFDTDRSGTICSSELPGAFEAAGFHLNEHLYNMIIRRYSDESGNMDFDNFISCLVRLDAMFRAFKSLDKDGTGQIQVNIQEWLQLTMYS
Outline: (§1)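 Continuous FRET read-out (ex 490/em 520 nm) of 5-FAM/QXL 520 substrate cleavage, started by adding substrate with CaCl2 for in-situ activation after enzyme–inhibitor preincubation at 25 °C. Buffer was Tris 50 mM pH 7.5, NaCl 100 mM, DTT 1 mM. IC50 fitted (4-parameter) from rates over 1-5 min.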

[1] = test system: Calpain activity in SH-SY5Y cells; test: SH-SY5Y spectrin breakdown product (SBDP-150) western blot assay; type: cell-based; settings: SH-SY5Y cells, 25 uM A23187, SBDP-150 western blot, read-out: SH-SY5Y Spectrin IC50
[2] = test system: Calpain activity in SH-SY5Y cells; test: SH-SY5Y Suc-LLVY-AMC fluorescence assay; type: cell-based; settings: SH-SY5Y cells, 100 uM Suc-LLVY-AMC, read-out: SH-SY5Y + AMC IC50
Human Calpain 2/NS1 = biological target: T2, Human Calpain 2/NS1 (Homo sapiens, UniProt P17655); test: Calpain inhibition, continuous fluorescence (FRET substrate) assay, calpain 2; type: biochemical; settings: SensoLyte 520 FRET substrate, 25C
T2 sequence (P17655 1-700): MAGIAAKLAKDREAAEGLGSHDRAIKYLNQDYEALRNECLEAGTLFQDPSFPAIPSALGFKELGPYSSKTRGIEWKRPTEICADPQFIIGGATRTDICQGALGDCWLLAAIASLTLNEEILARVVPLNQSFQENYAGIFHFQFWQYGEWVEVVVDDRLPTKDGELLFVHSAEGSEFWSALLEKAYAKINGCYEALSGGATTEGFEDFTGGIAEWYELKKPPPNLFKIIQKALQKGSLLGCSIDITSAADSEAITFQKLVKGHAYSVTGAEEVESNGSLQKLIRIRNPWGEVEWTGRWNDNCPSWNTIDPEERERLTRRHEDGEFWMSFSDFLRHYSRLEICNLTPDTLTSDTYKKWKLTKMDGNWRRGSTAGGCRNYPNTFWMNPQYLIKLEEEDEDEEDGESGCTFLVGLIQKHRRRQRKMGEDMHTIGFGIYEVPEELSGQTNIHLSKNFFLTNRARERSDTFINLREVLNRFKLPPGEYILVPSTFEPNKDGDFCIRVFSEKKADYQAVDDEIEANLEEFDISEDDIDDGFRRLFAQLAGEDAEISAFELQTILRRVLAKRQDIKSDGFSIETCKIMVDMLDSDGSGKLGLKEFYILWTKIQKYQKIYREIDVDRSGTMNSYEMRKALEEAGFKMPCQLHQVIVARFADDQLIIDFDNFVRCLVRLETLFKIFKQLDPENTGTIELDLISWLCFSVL
T2 sequence (P04632 1-268 partner): T1 sequence (P04632 1-268 partner)
Outline: as §1

Human Calpain 9/NS1 = biological target: T3, Human Calpain 9/NS1 (Homo sapiens, UniProt O14815); test: Calpain inhibition, continuous fluorescence (FRET substrate) assay, calpain 9; type: biochemical; settings: SensoLyte 520 FRET substrate, 25C
T3 sequence (O14815 1-690): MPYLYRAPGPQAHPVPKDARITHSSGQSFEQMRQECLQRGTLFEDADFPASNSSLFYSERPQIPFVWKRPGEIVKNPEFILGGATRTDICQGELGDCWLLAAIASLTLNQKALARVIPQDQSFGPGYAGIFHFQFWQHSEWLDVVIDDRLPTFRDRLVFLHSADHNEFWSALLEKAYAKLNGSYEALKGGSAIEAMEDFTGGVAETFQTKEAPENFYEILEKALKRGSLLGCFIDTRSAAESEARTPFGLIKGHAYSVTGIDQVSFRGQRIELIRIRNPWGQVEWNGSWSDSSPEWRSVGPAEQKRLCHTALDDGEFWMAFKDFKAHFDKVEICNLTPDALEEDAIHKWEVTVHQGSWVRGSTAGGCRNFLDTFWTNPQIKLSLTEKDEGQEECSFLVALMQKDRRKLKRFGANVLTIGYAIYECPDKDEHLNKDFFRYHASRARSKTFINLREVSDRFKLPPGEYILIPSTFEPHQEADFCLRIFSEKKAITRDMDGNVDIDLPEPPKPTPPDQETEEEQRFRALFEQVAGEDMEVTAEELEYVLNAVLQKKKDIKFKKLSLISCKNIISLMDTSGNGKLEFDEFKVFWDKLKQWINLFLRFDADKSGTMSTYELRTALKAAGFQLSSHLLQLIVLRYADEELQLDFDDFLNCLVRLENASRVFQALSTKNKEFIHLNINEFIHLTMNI
T3 sequence (P04632 1-268 partner): T1 sequence (P04632 1-268 partner)
Outline: as §1

SMILES	IC50 (Human Calpain 1/NS1) [µM]	IC50 ([1]; Homo sapiens) [µM]	IC50 ([2]; Homo sapiens) [µM]	IC50 (Human Calpain 2/NS1) [µM]	IC50 (Human Calpain 9/NS1) [µM]	IC50 [1] [µM]	IC50 [2] [µM]
O=C(NC(Cc1ccccc1)C(=O)c1nc2ccccc2o1)c1nsnc1-c1ccccc1 (centres unmarked) [Compound 86, N-(1-(BENZO[d]OXAZOL-2-YL)-1-OXO-3-PHENYLPROPAN-2-YL)-4-PHENYL-1,2,5-THIADIAZOLE-3-CARBOXAMIDE]	> 10	> 25	> 25	> 10	> 10	–	–
Cc1nc(-c2ccccc2F)c(C(=O)NC(Cc2cccc(F)c2)C(=O)C(N)=O)o1 (centres unmarked) [Compound 87, N-(4-AMINO-1-(3-FLUOROPHENYL)-3,4-DIOXOBUTAN-2-YL)-4-(2-FLUOROPHENYL)-2-METHYLOXAZOLE-5-CARBOXAMIDE]	< 3	10 to 25	< 10	< 3	< 3	–	–
Cc1nc(-c2cccc3sccc23)c(C(=O)NC(Cc2ccccc2)C(=O)C(N)=O)o1 (centres unmarked) [Compound 88, N-(4-AMINO-3,4-DIOXO-1-PHENYLBUTAN-2-YL)-4-(BENZO[b]THIOPHEN-4-YL)-2-METHYLOXAZOLE-5-CARBOXAMIDE]	< 3	> 25	< 10	< 3	< 3	–	–
Cc1nc(-c2ccccc2F)c(C(=O)NC(Cc2cccc(Cl)c2)C(=O)C(N)=O)o1 (centres unmarked) [Compound 89, N-(4-AMINO-1-(3-CHLOROPHENYL)-3,4-DIOXOBUTAN-2-YL)-4-(2-FLUOROPHENYL)-2-METHYLOXAZOLE-5-CARBOXAMIDE]	< 3	< 10	< 10	< 3	< 3	–	–
Cc1nc(-c2ccoc2Cl)c(C(=O)NC(Cc2ccccc2)C(=O)C(N)=O)o1 (centres unmarked) [Compound 90, N-(4-AMINO-3,4-DIOXO-1-PHENYLBUTAN-2-YL)-4-(2-CHLOROFURAN-3-YL)-2-METHYLOXAZOLE-5-CARBOXAMIDE]	< 3	10 to 25	< 10	< 3	< 3	–	–
Cc1nc(-c2cccc3ccsc23)c(C(=O)NC(Cc2ccccc2)C(=O)C(N)=O)o1 (centres unmarked) [Compound 91, N-(4-AMINO-3,4-DIOXO-1-PHENYLBUTAN-2-YL)-4-(BENZO[b]THIOPHEN-7-YL)-2-METHYLOXAZOLE-5-CARBOXAMIDE]	< 3	< 10	< 10	< 3	< 3	–	–
Cc1nc(-c2coc(Cl)c2)c(C(=O)NC(Cc2ccccc2)C(=O)C(N)=O)o1 (centres unmarked) [Compound 92, N-(4-AMINO-3,4-DIOXO-1-PHENYLBUTAN-2-YL)-4-(5-CHLOROFURAN-3-YL)-2-METHYLOXAZOLE-5-CARBOXAMIDE]	< 3	10 to 25	< 10	< 3	< 3	–	–
O=C(NC(Cc1ccccc1)C(=O)c1nnn[nH]1)c1nsnc1-c1ccccc1 (centres unmarked) [Compound 93, N-(1-OXO-3-PHENYL-1-(1H-TETRAZOL-5-YL)PROPAN-2-YL)-4-PHENYL-1,2,5-THIADIAZOLE-3-CARBOXAMIDE]	> 10	> 25	> 25	> 10	> 10	–	–
NC(=O)C(=O)C(Cc1ccccc1)NC(=O)c1oc(C(F)F)nc1-c1cccc2cn[nH]c12 (centres unmarked) [Compound 94, N-(4-AMINO-3,4-DIOXO-1-PHENYLBUTAN-2-YL)-2-(DIFLUOROMETHYL)-4-(1H-INDAZOL-7-YL)OXAZOLE-5-CARBOXAMIDE]	< 3	–	–	< 3	< 3	< 10	< 10
Cn1cc(C(=O)NC(Cc2ccc(C(F)(F)F)cc2)C(=O)C(N)=O)c(-c2ccccc2F)n1 (centres unmarked) [Compound 95, N-(4-AMINO-3,4-DIOXO-1-(4-(TRIFLUOROMETHYL)PHENYL)BUTAN-2-YL)-3-(2-FLUOROPHENYL)-1-METHYL-1H-PYRAZOLE-4-CARBOXAMIDE]	< 3	10 to 25	> 25	< 3	< 3	–	–

From patent US20210009564A1, “CALPAIN MODULATORS AND THERAPEUTIC USES THEREOF” (BLADE THERAPERTICS, INC., priority 2018, published 2021)
